# Activity calls are given as the source filed them. The rule behind the calls is not given here.
# Legend:
# Mycobacterium leprae = experiment: Anti-leprotic activity against Mycobacterium leprae assessed as maximum bactericidal dilutions; format: functional
# [1] = Inhibition of Mycobacterium smegmatis ATCC 607 dihydrofolic reductase; set-up: species or system Mycolicibacterium smegmatis
# [2] = system: Mycolicibacterium smegmatis; experiment: Inhibition of Mycobacterium smegmatis ATCC 607 dihydrofolic reductase assessed as ratio of Km to Ki
# [3] = system: Mycolicibacterium smegmatis; experiment: Antimicrobial activity against Mycobacterium smegmatis ATCC 607; format: functional; details: Mycolicibacterium smegmatis, ATCC 607; read-out: MIC
# [4] = system: Mycobacterium tuberculosis; experiment: Antitubercular activity against Mycobacterium tuberculosis infected in mouse assessed as reduction in microbial load at 2 to 3 mg ip, pretreated for 48 to 72 hrs followed by microbial infection and subsequent compound dosing at 48 to 72 hrs post-infection measured 24 to 32 days post-infection relative to control; format: functional; set-up: scale not given: the % may be the effect or the level left
# Enterococcus faecalis [5] = experiment: Antimicrobial activity against Enterococcus faecalis ATCC 29212 by broth microdilution assay; format: functional
# Staphylococcus aureus = experiment: Antimicrobial activity against Staphylococcus aureus ATCC 25923 by broth microdilution assay; format: functional
# Enterococcus faecalis [6] = experiment: Antimicrobial activity against Enterococcus faecalis ATCC 51922 by broth microdilution assay; format: functional
# Listeria monocytogenes = experiment: Antimicrobial activity against Listeria monocytogenes ATCC 1911 by broth microdilution assay; format: functional
# Klebsiella pneumoniae = experiment: Antimicrobial activity against Klebsiella pneumoniae 700603 by broth microdilution assay; format: functional
# Pseudomonas aeruginosa = experiment: Antimicrobial activity against Pseudomonas aeruginosa ATCC 27853 by broth microdilution assay; format: functional
# Escherichia coli [7] = experiment: Antimicrobial activity against Escherichia coli ATCC 35218 by broth microdilution assay; format: functional
# Escherichia coli [8] = experiment: Antimicrobial activity against Escherichia coli ATCC 25922 by broth microdilution assay; format: functional
# [9] = system: Mycobacterium tuberculosis; experiment: Antitubercular activity against Mycobacterium tuberculosis H37Rv ATCC 27294 incubated for 7 days by microplate alamar blue assay; format: functional; details: H37Rv ATCC 27294, 168 h
# [10] = system: Mycobacterium tuberculosis; experiment: Antitubercular activity against Mycobacterium tuberculosis H37Rv ATCC 27294 assessed as growth inhibition at 6.25 ug/ml by microplate alamar blue assay relative to control; format: functional
# [11] = system: Mycobacterium tuberculosis; experiment: Antitubercular activity against Mycobacterium tuberculosis H37Rv ATCC 27294 assessed as inhibition of [3H]-thymidine incorporation relative to control; format: functional
smiles,measurement,setting,value
CCCCCCCCCCC(C(=O)O)C1C=CCC1 (stereo not drawn),fold change (FC),Mycobacterium leprae,167
COc1cc(Cc2cnc(N)nc2N)cc(OC)c1OC [TRIMETHOPRIM],Ki,[1],70 nM
same,Ratio,[2],54.6
same,MIC,[3],34 µM
CC(C)(C)CC(C)(C)c1cc2c(O)c(c1)Cc1cc(C(C)(C)CC(C)(C)C)cc(c1OCCOCCOCCOCCOCCOCCO)Cc1cc(C(C)(C)CC(C)(C)C)cc(c1O)Cc1cc(C(C)(C)CC(C)(C)C)cc(c1OCCOCCOCCOCCOCCOCCO)Cc1cc(C(C)(C)CC(C)(C)C)cc(c1O)Cc1cc(C(C)(C)CC(C)(C)C)cc(c1OCCOCCOCCOCCOCCOCCO)Cc1cc(C(C)(C)CC(C)(C)C)cc(c1O)Cc1cc(C(C)(C)CC(C)(C)C)cc(c1OCCOCCOCCOCCOCCOCCO)C2,Activity,[4],20 - 50%
CC(C)(C)c1cc2c(OCCOCCOCCOCCOCCOCCO)c(c1)Cc1cc(C(C)(C)C)cc(c1OCCOCCOCCOCCOCCOCCO)Cc1cc(C(C)(C)C)cc(c1OCCOCCOCCOCCOCCOCCO)Cc1cc(C(C)(C)C)cc(c1OCCOCCOCCOCCOCCOCCO)Cc1cc(C(C)(C)C)cc(c1OCCOCCOCCOCCOCCOCCO)Cc1cc(C(C)(C)C)cc(c1OCCOCCOCCOCCOCCOCCO)Cc1cc(C(C)(C)C)cc(c1OCCOCCOCCOCCOCCOCCO)Cc1cc(C(C)(C)C)cc(c1OCCOCCOCCOCCOCCOCCO)C2,Activity,[4],80 - 100%
Oc1ccc(/C=N/NC(=S)Nc2ccc(C(F)(F)F)cc2)cc1,MIC,Enterococcus faecalis [5],400 µg/mL
same,MIC,Staphylococcus aureus,400 µg/mL
same,MIC,Enterococcus faecalis [6],400 µg/mL
same,MIC,Listeria monocytogenes,400 µg/mL
same,MIC,Klebsiella pneumoniae,400 µg/mL
same,MIC,Pseudomonas aeruginosa,400 µg/mL
same,MIC,Escherichia coli [7],400 µg/mL
same,MIC,Escherichia coli [8],400 µg/mL
same,MIC,[9],400 µg/mL
CC(C)(C)c1cc2c(O)c(c1)Cc1cc(C(C)(C)C)cc(c1OCCOCCOCCOCCOCCOCCO)Cc1cc(C(C)(C)C)cc(c1O)Cc1cc(C(C)(C)C)cc(c1OCCOCCOCCOCCOCCOCCO)Cc1cc(C(C)(C)C)cc(c1O)Cc1cc(C(C)(C)C)cc(c1OCCOCCOCCOCCOCCOCCO)Cc1cc(C(C)(C)C)cc(c1O)Cc1cc(C(C)(C)C)cc(c1OCCOCCOCCOCCOCCOCCO)C2,Activity,[4],20 - 50%
CC(C)(C)c1cc2c(O)c(c1)Cc1cc(C(C)(C)C)cc(c1O)Cc1cc(C(C)(C)C)cc(c1O)Cc1cc(C(C)(C)C)cc(c1O)C2,Activity,[4],inactive
CCCCCCCCC(C(=O)O)C1CCCCC1 (stereo not drawn),fold change (FC),Mycobacterium leprae,110
CCCCCCC(CCC1CCCC1)C(=O)O (stereo not drawn),fold change (FC),Mycobacterium leprae,320
CCCCCCCC(CCC1CCCCC1)C(=O)O (stereo not drawn),fold change (FC),Mycobacterium leprae,160
CCCCCc1cnc2nc(N)nc(N)c2n1,Ki,[1],1.2 nM
same,Ratio,[2],3420
same,MIC,[3],862 µM
Nc1nc(N)c2nc(CNc3ccc(C(=O)N[C@@H](CCC(=O)O)C(=O)O)cc3)cnc2n1 [AMINOPTERIN],Ki,[1],0.18 nM
same,Ratio,[2],23100
same,MIC,[3],742 µM
CCCCCCCCC(CCC1CCCC1)C(=O)O (stereo not drawn),fold change (FC),Mycobacterium leprae,180
Nc1nc(N)c2nc(Cc3ccc(Cl)c(Cl)c3)cnc2n1,Ki,[1],2 nM
same,Ratio,[2],58.5
same,MIC,[3],> 311 µM
CCCCCCCC(CCC1CCCC1)C(=O)O (stereo not drawn),fold change (FC),Mycobacterium leprae,170
CN(Cc1cnc2nc(N)nc(N)c2n1)c1ccc(C(=O)N[C@@H](CCC(=O)O)C(=O)O)cc1 [METHOTREXATE],Ki,[1],0.35 nM
same,Ratio,[2],11700
same,MIC,[3],2200 µM
CCCCCCCCCCCC(C(=O)O)C1CCCC1 (stereo not drawn),fold change (FC),Mycobacterium leprae,153
FC(F)(F)c1ccc(/C=N/NC(=S)Nc2ccc(C(F)(F)F)cc2)cc1,MIC,Enterococcus faecalis [5],100 µg/mL
same,MIC,Staphylococcus aureus,400 µg/mL
same,MIC,Enterococcus faecalis [6],400 µg/mL
same,MIC,Listeria monocytogenes,800 µg/mL
same,MIC,Klebsiella pneumoniae,400 µg/mL
same,MIC,Pseudomonas aeruginosa,400 µg/mL
same,MIC,Escherichia coli [7],400 µg/mL
same,MIC,Escherichia coli [8],400 µg/mL
same,MIC,[9],200 µg/mL
CC(C)(C)c1cc2c(O)c(c1)Cc1cc(C(C)(C)C)cc(c1OCCOCCOCCOCCOCCOCCOCCOCCOCCOCCOCCOCCO)Cc1cc(C(C)(C)C)cc(c1O)Cc1cc(C(C)(C)C)cc(c1OCCOCCOCCOCCOCCOCCOCCOCCOCCOCCOCCOCCO)Cc1cc(C(C)(C)C)cc(c1O)Cc1cc(C(C)(C)C)cc(c1OCCOCCOCCOCCOCCOCCOCCOCCOCCOCCOCCOCCO)Cc1cc(C(C)(C)C)cc(c1O)Cc1cc(C(C)(C)C)cc(c1OCCOCCOCCOCCOCCOCCOCCOCCOCCOCCOCCOCCO)C2,Activity,[4],20 - 50%
FC(F)(F)c1ccc(NC(=S)N/N=C/c2ccccc2)cc1,MIC,Enterococcus faecalis [5],200 µg/mL
same,MIC,Staphylococcus aureus,400 µg/mL
same,MIC,Enterococcus faecalis [6],400 µg/mL
same,MIC,Listeria monocytogenes,400 µg/mL
same,MIC,Klebsiella pneumoniae,400 µg/mL
same,MIC,Pseudomonas aeruginosa,400 µg/mL
same,MIC,Escherichia coli [7],400 µg/mL
same,MIC,Escherichia coli [8],400 µg/mL
same,MIC,[9],200 µg/mL
N#Cc1ccc(/C=N/NC(=S)Nc2ccc(C(F)(F)F)cc2)cc1,MIC,Enterococcus faecalis [5],200 µg/mL
same,MIC,Staphylococcus aureus,400 µg/mL
same,MIC,Enterococcus faecalis [6],400 µg/mL
same,MIC,Listeria monocytogenes,400 µg/mL
same,MIC,Klebsiella pneumoniae,400 µg/mL
same,MIC,Pseudomonas aeruginosa,400 µg/mL
same,MIC,Escherichia coli [7],400 µg/mL
same,MIC,Escherichia coli [8],400 µg/mL
same,MIC,[9],200 µg/mL
CC(C)(C)c1cc2c(OCCOCCOCCOCCOCCOCCOCCOCCOCCOCCOCCOCCO)c(c1)Cc1cc(C(C)(C)C)cc(c1OCCOCCOCCOCCOCCOCCOCCOCCOCCOCCOCCOCCO)Cc1cc(C(C)(C)C)cc(c1OCCOCCOCCOCCOCCOCCOCCOCCOCCOCCOCCOCCO)Cc1cc(C(C)(C)C)cc(c1OCCOCCOCCOCCOCCOCCOCCOCCOCCOCCOCCOCCO)Cc1cc(C(C)(C)C)cc(c1OCCOCCOCCOCCOCCOCCOCCOCCOCCOCCOCCOCCO)Cc1cc(C(C)(C)C)cc(c1OCCOCCOCCOCCOCCOCCOCCOCCOCCOCCOCCOCCO)Cc1cc(C(C)(C)C)cc(c1OCCOCCOCCOCCOCCOCCOCCOCCOCCOCCOCCOCCO)Cc1cc(C(C)(C)C)cc(c1OCCOCCOCCOCCOCCOCCOCCOCCOCCOCCOCCOCCO)C2,Activity,[4],50 - 100%
c1ccc(-c2ncnc3c2ncn3C2CCOCC2)cc1,inhibition at 6.25 µg/mL,[10],3%
same,inhibition (INH),[11],<10%
CCCCCCCCC(CCC1CCCCC1)C(=O)O (stereo not drawn),fold change (FC),Mycobacterium leprae,220
CCCCCCCCCCC(C(=O)O)C1CCCCC1 (stereo not drawn),fold change (FC),Mycobacterium leprae,180

# Reference: ChEMBL document CHEMBL4613212, “Insights of synthetic analogues of anti-leprosy agents” (Bioorg Med Chem, 2019)
